Results published in ChEMBL document CHEMBL1201862, “PubChem BioAssay data set” (2004).
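The compound was tested at five concentrations on cells cultured in 96-well plates, with a 48-hour exposure period. GI50 is the concentration that inhibits growth by half.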 The source made the active and inactive calls. No stated cut-off is given here; in the data, active = GI50 up to about 1.1 µM and inactive = higher.

Legend:
Test in all cases: DTP human tumour cell line panel, 48 h
786-0 = test system: 786-0
A498 = test system: A498
A549 = test system: A549
ACHN = test system: ACHN
CCRF-CEM = test system: CCRF-CEM
COLO 205 = test system: COLO 205
DLD-1 = test system: DLD-1
DMS-114 = test system: DMS-114
DMS-273 = test system: DMS-273
EKVX = test system: EKVX
HCC 2998 = test system: HCC 2998
HCT-116 = test system: HCT-116
HCT-15 = test system: HCT-15
HL-60 = test system: HL-60
HOP-62 = test system: HOP-62
HT-29 = test system: HT-29
IGROV-1 = test system: IGROV-1
K562 = test system: K562
KM-20L2 = test system: KM-20L2
LOX IMVI = test system: LOX IMVI
LXFL 529 = test system: LXFL 529
M14 = test system: M14
M19-MEL = test system: M19-MEL
MOLT-4 = test system: MOLT-4
Malme-3M = test system: Malme-3M
NCI-H226 = test system: NCI-H226
NCI-H23 = test system: NCI-H23
NCI-H460 = test system: NCI-H460
OVCAR-3 = test system: OVCAR-3
OVCAR-4 = test system: OVCAR-4
OVCAR-8 = test system: OVCAR-8
RPMI-8226 = test system: RPMI-8226
RXF 393 = test system: RXF 393
RXF 631 = test system: RXF 631
SF-268 = test system: SF-268
SF-295 = test system: SF-295
SF-539 = test system: SF-539
SK-MEL-28 = test system: SK-MEL-28
SK-MEL-2 = test system: SK-MEL-2
SK-MEL-5 = test system: SK-MEL-5
SN12C = test system: SN12C
SNB-19 = test system: SNB-19
SNB-75 = test system: SNB-75
SR = test system: SR
SW-620 = test system: SW-620
TK-10 = test system: TK-10
U-251 = test system: U-251
UACC-257 = test system: UACC-257
UACC-62 = test system: UACC-62
UO-31 = test system: UO-31
XF498 = test system: XF498
HOP-18 = test system: HOP-18
KM12 = test system: KM12
NCI-H522 = test system: NCI-H522
OVCAR-5 = test system: OVCAR-5
SK-OV-3 = test system: SK-OV-3
SNB-78 = test system: SNB-78

With CC(C)C1CN(C(=O)OCc2ccccc2)C2N1C(=O)C2(C)OCc1ccccc1 (stereo not drawn) the GI50 (786-0) was 49.3 µM (inactive), the GI50 (A498) was 26.8 µM (inactive) and the GI50 (A549) was 29.2 µM (inactive). For the same compound, the GI50 (ACHN) was 33 µM (inactive), the GI50 (CCRF-CEM) was 28.1 µM (inactive) and the GI50 (COLO 205) was 19.1 µM (inactive). The GI50 (DLD-1) was 36 µM (inactive), the GI50 (DMS-114) was 31.3 µM (inactive) and the GI50 (DMS-273) was 35.3 µM (inactive). The GI50 (EKVX) was 34 µM (inactive), the GI50 (HCC 2998) was 36.4 µM (inactive) and the GI50 (HCT-116) was 37.6 µM (inactive). The GI50 (HCT-15) was 44.8 µM, the GI50 (HL-60) was 22.6 µM (inactive) and the GI50 (HOP-62) was 94.4 µM (inactive). For the same compound, the GI50 (HT-29) was 42.2 µM (inactive), the GI50 (IGROV-1) was 35.9 µM (inactive) and the GI50 (K562) was 34.8 µM (inactive). For the same compound, the GI50 (KM-20L2) was 43.9 µM (inactive), the GI50 (LOX IMVI) was 27.2 µM (inactive) and the GI50 (LXFL 529) was 28.7 µM (inactive). The GI50 (M14) was 36.1 µM (inactive), the GI50 (M19-MEL) was 32.4 µM (inactive) and the GI50 (MOLT-4) was 24.4 µM (inactive). The GI50 (Malme-3M) was 31.8 µM (inactive), the GI50 (NCI-H226) was 22 µM (inactive) and the GI50 (NCI-H23) was 24.5 µM (inactive). For the same compound, the GI50 (NCI-H460) was 21.6 µM (inactive), the GI50 (OVCAR-3) was > 100 µM (inactive) and the GI50 (OVCAR-4) was 41.9 µM (inactive). The GI50 (OVCAR-8) was 45.4 µM (inactive), the GI50 (RPMI-8226) was 21.4 µM (inactive) and the GI50 (RXF 393) was 21.4 µM (inactive). The GI50 (RXF 631) was 40.6 µM (inactive), the GI50 (SF-268) was 44.6 µM (inactive) and the GI50 (SF-295) was 34.8 µM (inactive). For the same compound, the GI50 (SF-539) was 56 µM (inactive), the GI50 (SK-MEL-28) was > 100 µM (inactive) and the GI50 (SK-MEL-2) was 28.2 µM (inactive). For the same compound, the GI50 (SK-MEL-5) was 16 µM (inactive), the GI50 (SN12C) was 48.6 µM (inactive) and the GI50 (SNB-19) was 46.7 µM (inactive). For the same compound, the GI50 (SNB-75) was 16.7 µM (inactive), the GI50 (SR) was 29.2 µM (inactive) and the GI50 (SW-620) was 40.9 µM (inactive). The GI50 (TK-10) was 42.9 µM (inactive), the GI50 (U-251) was 41.7 µM (inactive) and the GI50 (UACC-257) was 28.2 µM (inactive). For the same compound, the GI50 (UACC-62) was 25.1 µM (inactive), the GI50 (UO-31) was 20.3 µM (inactive) and the GI50 (XF498) was 11.7 µM (inactive).

COc1ccc(C(=O)C(c2ccc(OC)cc2)C2(O)C(=O)Nc3c2ccc(Cl)c3C)cc1 (stereo not drawn) was tested, and the GI50 (786-0) was > 100 µM (inactive), the GI50 (A498) was > 100 µM (inactive) and the GI50 (A549) was > 100 µM (inactive). For the same compound, the GI50 (ACHN) was > 100 µM (inactive), the GI50 (CCRF-CEM) was > 100 µM (inactive) and the GI50 (COLO 205) was > 100 µM (inactive). For the same compound, the GI50 (DMS-114) was > 100 µM (inactive), the GI50 (EKVX) was > 100 µM (inactive) and the GI50 (HCC 2998) was > 100 µM (inactive). The GI50 (HCT-116) was > 100 µM (inactive), the GI50 (HCT-15) was > 100 µM and the GI50 (HL-60) was > 100 µM (inactive). For the same compound, the GI50 (HOP-18) was 58.9 µM (inactive), the GI50 (HOP-62) was > 100 µM (inactive) and the GI50 (HT-29) was > 100 µM (inactive). The GI50 (IGROV-1) was > 100 µM (inactive), the GI50 (K562) was > 100 µM (inactive) and the GI50 (KM-20L2) was > 100 µM (inactive). For the same compound, the GI50 (KM12) was > 100 µM (inactive), the GI50 (LOX IMVI) was 91.2 µM (inactive) and the GI50 (LXFL 529) was > 100 µM (inactive). For the same compound, the GI50 (M14) was > 100 µM (inactive), the GI50 (M19-MEL) was > 100 µM (inactive) and the GI50 (MOLT-4) was > 100 µM (inactive). The GI50 (Malme-3M) was > 100 µM (inactive), the GI50 (NCI-H226) was > 100 µM (inactive) and the GI50 (NCI-H23) was > 100 µM (inactive). The GI50 (NCI-H460) was > 100 µM (inactive), the GI50 (NCI-H522) was > 100 µM (inactive) and the GI50 (OVCAR-3) was > 100 µM (inactive). For the same compound, the GI50 (OVCAR-4) was > 100 µM (inactive), the GI50 (OVCAR-5) was > 100 µM (inactive) and the GI50 (OVCAR-8) was > 100 µM (inactive). For the same compound, the GI50 (RPMI-8226) was > 100 µM (inactive), the GI50 (RXF 393) was 94.2 µM (inactive) and the GI50 (RXF 631) was 34.9 µM (inactive). The GI50 (SF-268) was > 100 µM (inactive), the GI50 (SF-295) was > 100 µM (inactive) and the GI50 (SK-MEL-28) was > 100 µM (inactive). The GI50 (SK-MEL-2) was > 100 µM (inactive), the GI50 (SK-MEL-5) was > 100 µM (inactive) and the GI50 (SK-OV-3) was > 100 µM (inactive). For the same compound, the GI50 (SN12C) was > 100 µM (inactive), the GI50 (SNB-19) was > 100 µM (inactive) and the GI50 (SNB-75) was 37.3 µM (inactive). The GI50 (SNB-78) was > 100 µM (inactive), the GI50 (SW-620) was > 100 µM (inactive) and the GI50 (TK-10) was > 100 µM (inactive). For the same compound, the GI50 (U-251) was > 100 µM (inactive), the GI50 (UACC-257) was 92.9 µM (inactive) and the GI50 (UACC-62) was > 100 µM (inactive). For the same compound, the GI50 (UO-31) was 64.6 µM (inactive).
